Test: logP determination via HPLC retention times (calibration with unbranched alkan-2-ones)
Format: physicochemical
Details: from retention times, linear interpolation between alkan-2-ones
Text: Die Kalibrierung wurde jeweils mit unverzweigten Alkan-2-onn (3 bis 16 Kohlenstoff Atome) mit bekannten IogP Werten durchgeführt (Bestimmung von den logP Werten über die Retentionszeiten durch lineare Interpolation zwischen zwei bestimmten Alkazionen). Die Lambda-max Werte wurden jeweils in den Maxima der Chromatographie-Signale durch UV Spektren zwischen 190nm und 400nm bestimmt.

Molecule | logP | chromatographic logP
3-(2-Methyl)-4-(2-thienyl)-5-hydroxy-5-methylfuran-2(5H)-on | 2.59 | 
CC1(O)OC(=O)C(c2cc(F)c(F)cc2F)=C1c1cccs1 (stereo not drawn) [3-(2,4,5-Trifluorphonyl)-4-(2-thienyl)-5-hydroxy-5-methylfuran-2(5H)-on] |  | 2.57
Cc1ccc(C2=C(c3cc(F)c(F)cc3F)C(=O)OC2(C)O)nc1C (stereo not drawn) [3-(2,4,5-Trilluorphenyl)4-(5,6-Dimethyl-2-pyridyl)-5-hydroxy-5-methylfuran-2(5H)-on] |  | 2.89
CC1(O)OC(=O)C(c2c(Cl)cccc2Cl)=C1c1cccs1 (stereo not drawn) [3-(2,6-Dichlorphenyl)-4-(2-thienyl)-5-hydroxy-5-methylfuran-2(5H)-on] |  | 2.57
Cc1ccc(C2=C(c3c(Cl)cccc3Cl)C(=O)OC2(C)O)nc1C (stereo not drawn) [3-(2,6-Dichlorphenyl)-4-(5,6-Dimethyl-2-pyridyl)5-hydroxy-5-methylfuran-2(5H)-on] |  | 3.14
CC1(O)OC(=O)C(c2c(F)cccc2F)=C1c1cccs1 (stereo not drawn) [3-(2,6-Difluorphenyl)4-(2-thienyl)-5-hydroxy-5-methylfuran-2(5H)-on] |  | 2.39
CC1(O)OC(=O)C(c2c(F)cccc2F)=C1c1ccncc1 (stereo not drawn) [3-(2,6-Difluorphenyl)-4-(4-pyridyl)-5-hydroxy-5-methylfuran-2(5H)-on] |  | 1.4
Cc1ccc(C2=C(c3c(F)cccc3F)C(=O)OC2(C)O)nc1C (stereo not drawn) [3-(2,6-Difluorphenyl)-4-(5,6-Dimethyl-2-pyridyl)-5-hydroxy-5-methylfuran-2(5H)-on] |  | 2.65
CC1(O)OC(=O)C(c2c(F)cccc2F)=C1c1nccs1 (stereo not drawn) [3-(2,6-Difluorphonyl)-4-(2-thiazolyl)-5-hydroxy-5-methylfuran-2(5H)-on] |  | 1.92
CC1(O)OC(=O)C(c2ccc(F)cc2Br)=C1c1cccs1 (stereo not drawn) [3-(2-Brom-4-fluorphenyl)-4-(2-thienyl)-5-hydroxy-5-methylfuran-2(5H)-on] |  | 2.64
CC1(O)OC(=O)C(c2ccc(F)cc2Br)=C1c1ccc(Cl)s1 (stereo not drawn) [3-(2-Brom-4-fluorphenyl)-4-(5-chlor-2-thienyl)-5-hydroxy-5-methylfuran-2(5H)-on] |  | 3.3
CC1(O)OC(=O)C(c2ccc(F)cc2Cl)=C1c1cccs1 (stereo not drawn) [3-(2-Chlor-4-fluorphenyl)-4-(2-thienyl)-5-hydroxy-5-methylfuran-2(5H)-on] |  | 2.68
CC1(O)OC(=O)C(c2ccc(F)cc2Cl)=C1c1ccc(Cl)s1 (stereo not drawn) [3-(2-Chlor-4-fluorphenyl)-4-(5-chlor-2-thienyl)-5-hydroxy-5-methylfuran-2(5H)-on] |  | 3.24
CC1(O)OC(=O)C(c2c(F)cccc2Cl)=C1c1cccs1 (stereo not drawn) [3-(2-Chlor-6-fluorphenyl)-4-(2-thienyl)-5-hydroxy-5-methylfuran-2(5H)-on] |  | 2.61
CC1(O)OC(=O)C(c2c(F)cccc2Cl)=C1c1ccc(Cl)s1 (stereo not drawn) [3-(2-Chlor-6-fluorphenyl)-4-(5-chlor-2-thienyl)-5-hydroxy-5-methylfuran-2(5H)-on] |  | 3.13
CC1(O)OC(=O)C(c2ccccc2Cl)=C1c1cccs1 (stereo not drawn) [3-(2-Chlorphenyl)-4-(2-thienyl)-5-hydroxy-5-methylfuran-2(5H)-on] |  | 2.44
CC1(O)OC(=O)C(c2ccccc2Cl)=C1c1ccc(Cl)s1 (stereo not drawn) [3-(2-Chlorphenyl)-4-(5-chlor-2-thienyl)-5-hydroxy-5-methylfuran-2(5H)-on] |  | 3.91
CC1(O)OC(=O)C(c2ccccc2F)=C1c1cccs1 (stereo not drawn) [3-(2-Fluorphenyl)-4-(2-thienyl)-5-hydroxy-5-methylfuran-2(5H)-on] |  | 2.29
CC1(O)OC(=O)C(c2cccc(Cl)c2)=C1c1cccs1 (stereo not drawn) [3-(3-Chlorphenyl)-4-(2-thienyl)-5-hydroxy-5-methylfuran-2(5H)-on] |  | 2.73
CC1(O)OC(=O)C(c2cccc(Cl)c2)=C1c1ccc(Cl)s1 (stereo not drawn) [3-(3-Chlorphenyl)-4-(5-chlor-2-thienyl)-5-hydroxy-5-metylfuran-2(5H)-on] |  | 3.38

The next lines start with the values.

logP | chromatographic logP | Molecule
 | 2.43 | Cc1n[nH]c(=O)c(-c2c(Cl)cccc2Cl)c1-c1cccs1 [4-(2,6-Dichlorphenyl)-5-(2-thienyl)-6-methylpyridazin-3(2H)-on]
2.35 |  | Cc1ccc(C2=C(c3c(F)cccc3F)C(C)(O)OC2=O)o1 (stereo not drawn) [4-(2,6-Difluorphenyl)-3-(5-Methyl-2-furyl)-5-hydroxy-5-methylfuran-2(5H)-on]
 | 3.03 | Cc1n[nH]c(=O)c(-c2ccc(F)cc2Br)c1-c1ccc(Cl)s1 [4-(2-Brom-4-fluorphenyl)-5-(5-chlor-2-thienyl)-6-methylpyridazin-3(2H)-on]
 | 2.97 | Cc1n[nH]c(=O)c(-c2ccc(F)cc2Cl)c1-c1ccc(Cl)s1 [4-(2-Chlor-4-fluorphenyl)-5-(5-chlor-2-thienyl)-6-methylpyridazin-3(2H)-on]
 | 2.19 | Cc1n[nH]c(=O)c(-c2ccccc2Cl)c1-c1cccs1 [4-(2-Chlorphenyl)-5-(2-thienyl)-6-methylpyridazin-3(2H)-on]
 | 2.83 | Cc1n[nH]c(=O)c(-c2ccccc2Cl)c1-c1ccc(Cl)s1 [4-(2-Chlorphenyl)-5-(5-chlor-2-thienyl)-6-methylpyridazin-3(2H)-on]
 | 2.06 | Cc1n[nH]c(=O)c(-c2ccccc2F)c1-c1cccs1 [4-(2-Fluorphonyl)-5-(2-thienyl)-6-methylpyridazin-3(2H)-on]
 | 3.04 | Cc1n[nH]c(=O)c(-c2cccc(Cl)c2)c1-c1ccc(Cl)s1 [4-(3-Chlorphenyl)-5-(5-chlor-2-thienyl)-6-methylpyridazin-3(2H)-on]
 | 3.41 | CC1(O)OC(=O)C(c2cccc3c2OC(F)(F)O3)=C1c1ccc(Cl)s1 (stereo not drawn) [4-(5-Chlor-2-thienyl)-3-(2,2-difluor-1,3-benzodioxol-4-yl)-5-hydroxy-5-methylfuran-2(5H)-on]
 | 3.26 | CC1(O)OC(=O)C(c2c(Cl)cccc2Cl)=C1c1ccc(Cl)s1 (stereo not drawn) [4-(5-Chlor-2-thienyl)-3-(2,6-dichlorphenyl)-5-hydroxy-5-methylfuran-2(5H)-on]
 | 2.94 | CC1(O)OC(=O)C(c2c(F)cccc2F)=C1c1ccc(Cl)s1 (stereo not drawn) [4-(5-Chlor-2-thienyl)-3-(2,6-difluorphonyl)-5-hydroxy-5-methylfuran-2(5H)-on]
 | 2.93 | CC1(O)OC(=O)C(c2ccccc2F)=C1c1ccc(Cl)s1 (stereo not drawn) [4-(5-Chlor-2-thienyl)-3-(2-fluorphenyl)-5-hydroxy-5-methylfuran-2(5H)-on]
 | 3.17 | CC1(O)OC(=O)C(c2cc(F)c(F)cc2F)=C1c1ccc(Cl)s1 (stereo not drawn) [4.(5-Chlor-2-thienyl)-3-(2,4,5-trifluorphenyl)-5-hydroxy-5-methylfuran-2(5H)-on]
 | 1.57 | Cc1n[nH]c(=O)c(-c2c(F)cccc2F)c1-c1nccs1 [5-(2-Thiazolyl)-4-(2,6-difluorphenyl)-6-methylpyridazin-3(2H)-on]
 | 2.32 | Cc1n[nH]c(=O)c(-c2cc(F)c(F)cc2F)c1-c1cccs1 [5-(2-thienyl)-4-(2,4,5-trifluorphenyl)-6-methylpyridazin-3(2H)-on]
 | 0.93 | Cc1n[nH]c(=O)c(-c2c(F)cccc2F)c1-c1ccncc1 [5-(4-Pyridyl)4-(2,6-difluorphenyl)-6-methylpyridazin-3(2H)-on]
